{
  "source": "patent US20090156477A1",
  "about": "“Compositions and Methods for Regulating Inflammatory Responses” (Massachusetts Institute of Technology, priority 2005, published 2009)",
  "assay_type_in_all_cases": "cell-based, human",
  "key": {"Fz1": {"system": "Fz1", "test": "RT-PCR expression in Caco-2 cells after FGF treatment: Fz1", "conditions": "normalized to PBS treatment, defined as 1.0", "text": "Five μg of total RNA was isolated from Caco-2 cells using Trizol reagent (Life Tech, Rockville, Md.) followed by reverse transcription with random hexamers. Specific oligomers were designed based on published sequences in order to detect the expression of specific human Wnt, Fz and syndecan isoforms. Sequences of primer pairs were as follows: Wnt-1: 5′-CACGACCTCGTCTACTTCGAC-3′ (SEQ ID NO: 17) and 5′-ACAGACACTCGTGCAGTACGC-3′ (SEQ ID NO: 18); Wnt-2: 5′-CATGGTGGTACATGAGAGCTAC-3′ (SEQ ID NO: 19) and 5′-GGCAAATACAACTCCAGCTGAG-3′ (SEQ ID NO: 20); Wnt-3: 5′-GAGAGCCTCCCCGTCCACAG-3′ (SEQ ID NO: 21) and 5′-CTGCCAGGAGTGTATTCGCATC-3′ (SEQ ID NO: 22); Wnt-3a: 5′-CAGGAACTACGTGGAGATCATG-3′ (SEQ ID NO: 23) and 5′-CCATCCCACCAAACTCGATGTC-3′ (SEQ ID NO: 24); Fz-1: 5′-GAACTTTCCTCCAACTTCATGGC-3′ (SEQ ID NO: 25) and 5′-CATTTCCATTTTACAGACCGG-3′ (SEQ ID NO: 26); Fz-2: 5′-GGTGAGCCAGCACTGCAAGAG-3′ (SEQ ID NO: 27) and 5′-CCTAAAAGTGAAATGGTTTCGATCG-3′ (SEQ ID NO: 28); Fz-10: 5′-ACACGTCCAACGCCAGCATG-3′ (SEQ ID NO: 29) and 5′-ACGAGTCATGTTGTAGCCGATG-3′ (SEQ ID NO: 30); and Syndecan-1/Sdc-1/CD138: 5′-CTTCACACTCCCCACACAGA-3′ (SEQ ID NO: 31) and 5′-TCCTGTTTGGTGGGCTTCTG-3′ (SEQ ID NO: 32). To control for total cell […], RT-PCR was also performed on β-actin using the primers 5′-GCCAGCTCACCATGGATGATGATAT-3′ (SEQ ID NO: 33) and 5′-GCTTGCTGATCCACATCTGCTGGAA-3′ (SEQ ID NO: 34). PCR was performed using the Advantage-GC cDNA kit from Clontech as per manufacturer's instructions (Palo Alto, Calif.)."}, "syndecan-1": {"system": "syndecan-1", "test": "Immunohistochemistry for syndecan-1 in Caco-2 cells", "conditions": "for syndecan-1 localization, one hour after treatment: 1 hour; for syndecan-1 distribution after 24 hours: compared to FGF1 treated cells", "description": "(§1) Caco-2 cells were grown to just prior to confluency on collagen IV coated glass slides. Cells were treated with PBS, FGF1, FGF2 and FGF7, and were incubated at 37° C. in a 5% CO2 humidified incubator for 1 hour, 4 hours, 24 hours or 48 hours, as noted. Cells were washed with PBS, fixed with 3.7% formalin for 10 minutes and washed again with PBS. Cells were treated with 0.1% Triton x-100 for 5 minutes to extract lipids. Cells were washed with PBS and preincubated with PBS supplemented with 1% bovine serum albumin. Primary antibodies were added for 4 hours at room temperature, and cells were washed with PBS. Primary antibodies used were as follows: rabbit anti-human ZO-1 (1:160; Zymed Laboratories, San Francisco, Calif.); mouse anti-human syndecan-1 (1:300; Santa Cruz Biotechnology); goat anti-human Fz-1 (1:125; Santa Cruz Biotechnology); rabbit anti-human caveolin-1 (1:250; Santa Cruz Biotechnology); goat anti-human glypican-1 (1:100; Santa Cruz Biotechnology); mouse anti-human E-cadherin (1:250; Zymed Laboratories); rabbit anti-human β-catenin (1:125; Cell Signaling Technology, Beverly, Mass.); and rabbit anti-human phospho-β-catenin (Ser33/37/Thr41; 1:125; Cell Signaling Technology, Beverly, Mass.).\n(§2) Cells were then treated with secondary antibodies, Texas Red-labeled phalloidin (Molecular Probes, Eugene, Oreg.) or FLAER-FL1 (1:400; Protox Biotech, Victoria, BC, Canada) as appropriate for 1 hour in the dark at room temperature. Secondary antibodies used were as follows: FITC-labeled chicken anti-rabbit (for ZO-1; 1:100; Molecular Probes, Eugene, Oreg.); Texas Red-labeled goat-anti mouse (for syndecan-1; 1:400; Molecular Probes); FITC-labeled donkey anti-mouse (for syndecan-1; 1:400; Molecular Probes, Eugene, Oreg.); FITC-labeled rabbit anti-mouse (for syndecan-1 and E-cadherin; 1:500; Molecular Probes, Eugene, Oreg.); Texas Red-labeled rabbit anti-goat (for Fz-1; 1:200; Jackson ImmunoResearch Laboratories, West Grove, Pa.); Texas Red-labeled goat anti-rabbit (for caveolin-1, β-catenin and phospho-β-catenin; 1:500; Molecular Probes); and Texas Red-labeled donkey anti-goat (for glypican-1; 1:80; Research Diagnostics, Flanders, N.J.).\n(§3) Cells, except those stained with phalloidin, were washed with PBS and stained with diamidino-2-phenylindole (DAPI) for 5 minutes at room temperature (Molecular Probes). Controls of no antibody, primary antibody only, and secondary antibody only were performed. Cells were examined by confocal microscopy (ZO-1 and phalloidin only), or by fluorescence microscopy. A Nikon HB10101AF fluorescence microscope was used and images were captured at room temperature using a Hitachi HVC20 camera and Scion image acquisition software. Images were processed using Adobe Photoshop 7.0 and Adobe Illustrator 10.0."}, "T84 monolayers": {"system": "T84 monolayers", "test": "Monolayer flux of 3 kDa FITC-dextran, T84", "conditions": "100 ng/ml ligand on days 10 and 12, flux measured on day 15, PBS 7.99 ± 0.22", "description": "Cells were plated on transwells as described. Media from the basolateral chamber was removed every other day and replaced with new media. Resistances were followed for 10 days, and either 100 ng/ml FGF2, 100 ng/ml FGF7 or 10 μl PBS were added on days 10 and 12. On day 15, media was removed from both the apical and basolateral chambers. The basolateral chamber was filled with 1 ml HBSS. FITC conjugated to 3 kDa dextran was added to the apical chamber in a volume of 100 μl, at 1 mg/ml in HBSS. After 30, 60 and 90 minutes, 50 μl was removed from the basolateral chamber and transferred to a 96 well plate, and 50 μl HBSS was added to the basolateral chamber. Subsequently, the flux was determined by measurement of FITC-conjugated dextran that crossed the monolayer by measurement with a fluorimeter, stimulating at 480 nm and measuring emission at 530 nm."}, "E-cadherin": {"system": "E-cadherin", "test": "Immunohistochemistry for E-cadherin in Caco-2 cells", "conditions": "for E-cadherin localization after 24 hours: vs 1 hour and vs PBS and FGF1", "description": "as §1, §2, §3"}},
  "data": [
    {"molecule": "FGF1: Recombinant human FGF1 from Amgen", "values": [
      {"measurement": "Fz1 expression (intensity of RT-PCR images)", "setting": "Fz1", "result": 1.5},
      {"measurement": "syndecan-1 localization, one hour after treatment", "setting": "syndecan-1", "result": "seen to a lesser amount"}
    ]},
    {"molecule": "FGF2: Recombinant human FGF2, produced as described", "values": [
      {"measurement": "Flux across monolayers (3 kDa-dextran conjugated to FITC; function of emission at 530 nm over time)", "setting": "T84 monolayers", "result": "37.21 ± 10.25"},
      {"measurement": "Fz1 expression (intensity of RT-PCR images)", "setting": "Fz1", "result": 1.1},
      {"measurement": "E-cadherin localization after 1 hour", "setting": "E-cadherin", "result": "altered E-cadherin localization"},
      {"measurement": "E-cadherin localization after 24 hours", "setting": "E-cadherin", "result": "more cytoplasmic localization"},
      {"measurement": "syndecan-1 localization, one hour after treatment", "setting": "syndecan-1", "result": "primarily localized around the nucleus"},
      {"measurement": "syndecan-1 distribution after 24 hours", "setting": "syndecan-1", "result": "moderately enhanced cytoplasmic and membrane-associated distribution of syndecan-1"}
    ]},
    {"molecule": "FGF7: Recombinant human FGF7 from Sigma (protein, UniProt P21781 32-194, looked up) Fibroblast growth factor 7: CNDMTPEQMATNVNCSSPERHTRSYDYMEGGDIRVRRLFCRTQWYLRIDKRGKVKGTQEMKNNYNIMEIRTVAVGIVAIKGVESEFYLAMNKEGKLYAKKECNEDCNFKELILENHYNTYASAKWTHNGGEMFVALNQKGIPVRGKKTKKEQKTAHFLPMAIT", "values": [
      {"measurement": "Flux across monolayers (3 kDa-dextran conjugated to FITC; function of emission at 530 nm over time)", "setting": "T84 monolayers", "result": "33.39 ± 9.24"},
      {"measurement": "Fz1 expression (intensity of RT-PCR images)", "setting": "Fz1", "result": 2.4},
      {"measurement": "E-cadherin localization after 1 hour", "setting": "E-cadherin", "result": "altered E-cadherin localization"},
      {"measurement": "E-cadherin localization after 24 hours", "setting": "E-cadherin", "result": "more cytoplasmic localization"},
      {"measurement": "syndecan-1 localization, one hour after treatment", "setting": "syndecan-1", "result": "primarily localized around the nucleus"},
      {"measurement": "syndecan-1 distribution after 24 hours", "setting": "syndecan-1", "result": "moderately enhanced cytoplasmic and membrane-associated distribution of syndecan-1"}
    ]}
  ]
}
